From the NIST ThermoML archive (doi:10.1016/j.fluid.2009.08.016)
± gives the expanded uncertainty stated by the source.

Tests used:
[1] = Crystal; DTA
[2] = Molar enthalpy of transition or fusion; settings: Crystal; DSC

**Q.** For `CC(C)CCC[C@@H](C)[C@H]1CC[C@H]2[C@@H]3CC=C4C[C@@H](O)CC[C@]4(C)[C@H]3CC[C@]12C` [.DELTA.5-cholesten-3β-ol], which Normal melting temperature [1] is on record?
**A.** Its Normal melting temperature is 148.6 ± 0.5 °C.

**Q.** And the “Molar enthalpy of transition or fusion” value [2]?
**A.** The value was 28.5 ± 0.8 kJ/mol.
